Experimental data: patent EP4678638A1, “NEW E3 UBIQUITIN LIGASE LIGAND, PROTEIN DEGRADATION AGENT AND USE THEREOF” (priority 2023, dated 2024)
Like-named read-outs stand apart in the source and are kept apart here.

Legend:
Assay type in all cases: cell-based, Human
PC-9 = assay: CCK-8 proliferation, PC-9; details: read-out: Inhibitory activity (IC50) on tumor cell proliferation, PC-9
Method in brief: (§1)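 Tumor cells were cultured at 37°C with 5% CO2, seeded, and after 24h treated with compounds at 10 concentrations starting at 10µM (5-fold serial dilutions).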

H1975 = assay: CCK-8 proliferation, NCI-H1975 (H1975); details: read-out: Inhibitory activity (IC50) on tumor cell proliferation, H1975
Method in brief: as §1

[1] = test system: H1975-1µM Osimertinib cells; assay: CCK-8 proliferation, osimertinib-resistant H1975 cells
Method: (§2) The tumor cells used herein were cultured in a cell culture medium listed in table A1 at 37°C in an incubator with 5% CO2. Prior to experimentation, all cell lines used were correctly identified by STR profiling, and tested negative for mycoplasma contamination using a mycoplasma detection kit through routine screenings. Table A1. Tumor cells and cell culture medium used in the present disclosure
(§3) IC50 values of the compounds of the present disclosure (including the compounds in Table 1, and compounds of examples) were measured using the Meilun Cell Counting Kit-8 kit from Dalian Meilun Biotech Co., Ltd. Assay details are as follows: tumor cells were seeded in a 96-well plate at a density listed in Table A2. After 24h, 100 µL of the inoculated cells were treated with 0.5µL of the compounds of the present disclosure (including the compounds in Tables 1 and 2, and compounds of examples) at 10 different successively decreasing concentrations (starting at the highest concentration of 10µM; 5-fold serial dilutions). After the cells were treated with the compounds of the present disclosure for a period of time, the cell viability detection reagent was added to the culture medium for cell viability assessment according to the instructions provided with the CCK-8 kit. […] The growth inhibition of the compounds of the present disclosure on cells was plotted by Prism Graphpad software, and the IC50 values of the compounds of the present disclosure were calculated therefrom. […] Seeding protocol and treatment time for tumor cells

HCC827 = assay: CCK-8 proliferation, HCC827; details: read-out: Inhibitory activity (IC50) on tumor cell proliferation, HCC827
Method: as §2, §3

EGFR = assay: Western blot degradation of EGFR (H1975 Cell); details: Table D2
Method in brief: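 After compound exposure, cells were harvested and lysates run on SDS-PAGE, transferred to nitrocellulose and probed with antibodies. Remaining target (%) was computed from band grayscale relative to an internal control protein and normalised; degradation (%) was 100% minus that.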

[2] = Homo sapiens, PC-9, CCK-8, 96 hours
[3] = Homo sapiens, NCI-H1975, CCK-8, 96 hours
[4] = Homo sapiens, NCI-H1975, CCK-8, osimertinib-resistant H1975 cells obtained by treating H1975 cells with 1 µM Osimertinib for 3 months, read-out: Inhibitory activity (IC50) on tumor cell proliferation, H1975-1µm Osimertinib
[5] = Homo sapiens, HCC827, CCK-8, 96 hours

Structure (SMILES)	IC50 (PC-9; [2])	IC50 (H1975; [3])	IC50 [1, 4]	IC50 (HCC827; [5])	Degradation of substrate protein EGFR (substrate protein remaining %) (EGFR)	further results
COc1cc(N2CCC(N(C)Cc3ccc(C4CCC(=O)NC4=O)cc3)CC2)c(C)cc1Nc1ncc(Br)c(Nc2ccc3nccnc3c2P(C)(C)=O)n1 (stereo not shown) [GT-03930, 3-(4-(((1-(4-((5-bromo-4-((5-(dimethylphosphoryl)quinoxalin-6-yl)amino)pyrimidin-2-yl)amino)-5-methoxy-2-methylphenyl)piperidin-4-yl)(methyl)amino)methyl)phenyl)piperidine-2,6-dione]	100 to 500 nM	50 to 100 nM	500 to 1000 nM	100 to 500 nM	–	–
COc1cc(N2CCN(Cc3cccc(N4CCC(=O)NC4=O)c3)CC2)c(C)cc1Nc1ncc(Br)c(Nc2ccc3nccnc3c2P(C)(C)=O)n1 [GT-04206, 1-(3-((4-(4-((5-bromo-4-((5-(dimethylphosphoryl)quinoxalin-6-yl)amino)pyrimidin-2-yl)amino)-5-methoxy-2-methylphenyl)piperazin-1-yl)methyl)phenyl)dihydropyrimidine-2,4(1H,3H)-dione]	100 to 500 nM	100 to 500 nM	100 to 500 nM	100 to 500 nM	A (A is defined as 0% ≤ substrate protein remaining % ≤ 80%)	–
COc1cc(N2CCC(N(C)Cc3cccc(N4CCC(=O)NC4=O)c3)CC2)c(C)cc1Nc1ncc(Br)c(Nc2ccc3nccnc3c2P(C)(C)=O)n1 [GT-04214, 1-(3-(((1-(4-((5-bromo-4-((5-(dimethylphosphoryl)quinoxalin-6-yl)amino)pyrimidin-2-yl)amino)-5-methoxy-2-methylphenyl)piperidin-4-yl)(methyl)amino)methyl)phenyl)dihydropyrimidine-2,4(1H,3H)-dione]	50 to 100 nM	10 to 50 nM	100 to 500 nM	100 to 500 nM	A (A is defined as 0% ≤ substrate protein remaining % ≤ 80%)	–
COc1cc(N2CCC(N3CCN(Cc4cccc(N5CCC(=O)NC5=O)c4)CC3)CC2)c(C)cc1Nc1ncc(Br)c(Nc2ccc3nccnc3c2P(C)(C)=O)n1 [GT-04260, 1-(3-((4-(1-(4-((5-bromo-4-((5-(dimethylphosphoryl)quinoxalin-6-yl)amino)pyrimidin-2-yl)amino)-5-methoxy-2-methylphenyl)piperidin-4-yl)piperazin-1-yl)methyl)phenyl)dihydropyrimidine-2,4(1H,3H)-dione]	50 to 100 nM	50 to 100 nM	100 to 500 nM	50 to 100 nM	A (A is defined as 0% ≤ substrate protein remaining % ≤ 80%)	–
O=C1CCC(c2ccc(CN3CCN(C4CCN(c5ccc(Nc6ncc7nc(Nc8ccccc8)n(C8CCCC8)c7n6)cc5)CC4)CC3)cc2)C(=O)N1 (stereo not shown) [GT-05915, 3-(4-((4-(1-(4-((9-cyclopentyl-8-(phenylamino)-9H-purin-2-yl)amino)phenyl)piperidin-4-yl)piperazin-1-yl)methyl)phenyl)piperidine-2,6-dione]	1 to 10 nM	50 to 100 nM	500 to 1000 nM	1 to 10 nM	A (A is defined as 0% ≤ substrate protein remaining % ≤ 80%)	–
O=C1CCN(c2ccc(CN3CCN(C4CCN(c5ccc(NC6=NC=C7N=C(Nc8ccccc8)N(C8CCCC8)C7N6)cc5)CC4)CC3)cn2)C(=O)N1 (stereo not shown) [GT-05942, 1-(5-((4-(1-(4-((9-cyclopentyl-8-(phenylamino)-4,9-dihydro-3H-purin-2-yl)amino)phenyl)piperidin-4-yl)piperazin-1-yl)methyl)pyridin-2-yl)dihydropyrimidine-2,4(1H,3H)-dione]	1 to 10 nM	–	500 to 1000 nM	10 to 50 nM	A (A is defined as 0% ≤ substrate protein remaining % ≤ 80%)	–
COc1cc(N2CCC(N(C)Cc3ccc(N4CCC(=O)NC4=O)cc3)CC2)c(C)cc1Nc1ncc(Br)c(Nc2ccc3nccnc3c2P(C)(C)=O)n1 [GT-05951, 1-(4-(((1-(4-((5-bromo-4-((5-(dimethylphosphoryl)quinoxalin-6-yl)amino)pyrimidin-2-yl)amino)-5-methoxy-2-methylphenyl)piperidin-4-yl)(methyl)amino)methyl)phenyl)dihydropyrimidine-2,4(1H,3H)-dione]	100 to 500 nM	–	500 to 1000 nM	–	A (A is defined as 0% ≤ substrate protein remaining % ≤ 80%)	–
COc1cc(N2CCC(N(C)Cc3ccc(N4CCC(=O)NC4=O)cn3)CC2)c(C)cc1Nc1ncc(Br)c(Nc2ccc3nccnc3c2P(C)(C)=O)n1 [GT-05952, 1-(6-(((1-(4-((5-bromo-4-((5-(dimethylphosphoryl)quinoxalin-6-yl)amino)pyrimidin-2-yl)amino)-5-methoxy-2-methylphenyl)piperidin-4-yl)(methyl)amino)methyl)pyridin-3-yl)dihydropyrimidine-2,4(1H,3H)-dione]	100 to 500 nM	–	500 to 1000 nM	500 to 1000 nM	A (A is defined as 0% ≤ substrate protein remaining % ≤ 80%)	–
CC(C)n1nc(N2CCC(N(C)Cc3ccc(C4CCC(=O)NC4=O)cc3)CC2)c2cnc(Nc3ccnc(-c4cnn(S(=O)(=O)C5CC5)c4)n3)cc21 (stereo not shown) [GT-06020, 3-(4-(((1-(6-((2-(1-(cyclopropylsulfonyl)-1H-pyrazol-4-yl)pyrimidin-4-yl)amino)-1-isopropyl-1H-pyrazolo[4,3-c]pyridin-3-yl)piperidin-4-yl)(methyl)amino)methyl)phenyl)piperidine-2,6-dione]	50 to 100 nM	–	100 to 500 nM	100 to 500 nM	–	–
CC(C)n1nc(N2CCC(N(C)Cc3ccc(N4CCC(=O)NC4=O)cc3)CC2)c2cnc(Nc3ccnc(-c4cnn(S(=O)(=O)C5CC5)c4)n3)cc21 [GT-06021, 1-(4-(((1-(6-((2-(1-(cyclopropylsulfonyl)-1H-pyrazol-4-yl)pyrimidin-4-yl)amino)-1-isopropyl-1H-pyrazolo[4,3-c]pyridin-3-yl)piperidin-4-yl)(methyl)amino)methyl)phenyl)dihydropyrimidine-2,4(1H,3H)-dione]	100 to 500 nM	–	500 to 1000 nM	100 to 500 nM	A (A is defined as 0% ≤ substrate protein remaining % ≤ 80%)	–
CC(C)n1nc(N2CCC(N3CCN(Cc4cccc(N5CCC(=O)NC5=O)c4)CC3)CC2)c2cnc(Nc3ccnc(-c4cnn(S(=O)(=O)C5CC5)c4)n3)cc21 [GT-06080, 1-(3-((4-(1-(6-((2-(1-(cyclopropylsulfonyl)-1H-pyrazol-4-yl)pyrimidin-4-yl)amino)-1-isopropyl-1H-pyrazolo[4,3-c]pyridin-3-yl)piperidin-4-yl)piperazin-1-yl)methyl)phenyl)dihydropyr imidine-2,4(1H,3H)-dione]	500 to 1000 nM	–	500 to 1000 nM	–	–	–
CC(C)n1nc(N2CCC(N3CCN(Cc4ccc(N5CCC(=O)NC5=O)nc4)CC3)CC2)c2cnc(Nc3ccnc(-c4cnn(S(=O)(=O)C5CC5)c4)n3)cc21 [GT-06082, 1-(5-((4-(1-(6-((2-(1-(cyclopropylsulfonyl)-1H-pyrazol-4-yl)pyrimidin-4-yl)amino)-1-isopropyl-1H-pyrazolo[4,3-c]pyridin-3-yl)piperidin-4-yl)piperazin-1-yl)methyl)pyridin-2-yl)dihydropyrimidine-2,4(1H,3H)-dione]	100 to 500 nM	100 to 500 nM	10 to 50 nM	–	–	–
COc1cc(N2CCC(N3CCN(CCC#Cc4cccc5c4CN(C4CCC(=O)NC4=O)C5=O)CC3)CC2)ccc1Nc1ncc(Cl)c(Nc2ccccc2P(C)(C)=O)n1 (stereo not shown) [HJM-561, reference compound]	–	–	–	–	–	IC50 (PC-9; CCK-8, 96 hours): 100 to 500 nM; IC50 (H1975; CCK-8, 96 hours): 50 to 100 nM; IC50 ([1]; CCK-8, osimertinib-resistant H1975 cells obtained by treating H1975 cells with 1 µM Osimertinib for 3 months, read-out: Inhibitory activity (IC50) on tumor cell proliferation, H1975-1µm Osimertinib): 1000 to 5000 nM; IC50 (HCC827; CCK-8, 96 hours): 500 to 1000 nM
C=CC(=O)Nc1cc(Nc2nccc(-c3cn(C)c4ccccc34)n2)c(OC)cc1N(C)CCN(C)C [osimertinib, reference compound]	–	–	–	–	–	IC50 (PC-9; Homo sapiens, PC-9, 96 h): 10 to 50 nM; IC50 (H1975; Homo sapiens, NCI-H1975, 96 h): 100 to 500 nM; IC50 ([1]; Homo sapiens, NCI-H1975, read-out: Inhibitory activity (IC50) on tumor cell proliferation, H1975-1µm Osimertinib): > 10000 nM; IC50 (HCC827; Homo sapiens, HCC827, 96 h): 10 to 50 nM
